Reference: patent publication US10603261B2, “Composition for enhancing hair fiber properties” (The Procter & Gamble Company, priority 2014, dated 2020)

Assay: Combing force after leave-on hair treatment using neat material
Conditions: hair treated with neat material; 1 and 5 washes
Description: This double combing apparatus is attached to an Instron Model 5564. The switch is combed 5 times with a fine-tooth comb and hanged onto the Instron load cell. Then, the hair switch is placed in the double comb apparatus. The Instron pulls the hair vertically at a rate of 10 mm/min until the hair switch clears the final comb. The peak force as the switch passes through the top comb is reported.
The treatment is repeated to two additional switches. The treated hair switches are allowed to rest for 24 hours under controlled temperature and relative humidity conditions (27° C. and 50% RH). After this time period, each hair switch is washed with a clarifying shampoo (see shampoo washing protocol below) and allowed to air dry for 24 hours under controlled temperature and relative humidity conditions (27° C. and 50% RH). The combing force is measured for each switch and an average for the three switches is calculated. […] Linoleic acid • b.
Each application consists of adding shampoo to the hair, milking for 30 seconds followed by rinsing for 30 seconds. Shampoo is then reapplied (0.1 g/g), milked for 30 seconds and rinsed for 30 seconds.

CCCCCCCC/C=C\CCCCCCCC(=O)O [Oleic acid]
combability (in words): better combability
